From PubChem BioAssay (NCI)
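A five-concentration, 48-hour dose response in 96-well plates underlies each endpoint, interpolated linearly between surrounding concentrations. GI50: concentration for 50% inhibition of growth. TGI is the concentration that stops growth completely.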

Key:
Experiment in all cases: inhibition of tumour cell growth, NCI panel, 48 h
RXF 393 renal = tested on: RXF 393 renal
SNB-19 CNS = tested on: SNB-19 CNS
NCI/ADR-RES ovarian = tested on: NCI/ADR-RES ovarian
CCRF-CEM leukemia = tested on: CCRF-CEM leukemia
NCI-H522 lung = tested on: NCI-H522 lung
HS 578T breast = tested on: HS 578T breast
A549 NSCLC = tested on: A549 NSCLC
OVCAR-8 ovarian = tested on: OVCAR-8 ovarian
DLD-1 colon = tested on: DLD-1 colon

`CNC(c1ccncc1)C(NC)c1ccncc1` (stereo not drawn) was tested, and the TGI (RXF 393 renal) was over 100 µM, the TGI (SNB-19 CNS) was over 100 µM and the TGI (NCI/ADR-RES ovarian) was over 100 µM. The TGI (CCRF-CEM leukemia) was over 100 µM, the TGI (NCI-H522 lung) was over 100 µM and the TGI (HS 578T breast) was over 100 µM. For the same compound, the TGI (A549 NSCLC) was over 100 µM and the TGI (OVCAR-8 ovarian) was over 100 µM.
`O=c1c2ccccc2nc(-c2ccccc2)n1NC(=S)Nc1cccc(Cl)c1` showed a TGI (RXF 393 renal) of 67.1 µM, a TGI (DLD-1 colon) of over 100 µM and a TGI (CCRF-CEM leukemia) of over 100 µM. For the same compound, the TGI (NCI-H522 lung) was over 100 µM, the TGI (A549 NSCLC) was over 100 µM and the TGI (OVCAR-8 ovarian) was over 100 µM.
Compound `Cc1ccc(S(=O)(=O)NC(CO)C(=O)O)cc1` (stereo not drawn) has a TGI (RXF 393 renal) of over 100 µM, a TGI (SNB-19 CNS) of over 100 µM and a TGI (NCI/ADR-RES ovarian) of over 100 µM. For the same compound, the TGI (CCRF-CEM leukemia) was over 100 µM, the TGI (NCI-H522 lung) was over 100 µM and the TGI (HS 578T breast) was over 100 µM. For the same compound, the TGI (A549 NSCLC) was over 100 µM and the TGI (OVCAR-8 ovarian) was over 100 µM.
`COc1cc(Cn2c(-c3ccccc3)cc3c2-c2oncc2CC3)cc(OC)c1` showed a GI50 (RXF 393 renal) of 0.296 µM, a TGI (RXF 393 renal) of over 100 µM and a GI50 (SNB-19 CNS) of 562 nM. It also gave a TGI (SNB-19 CNS) of over 100 µM, a GI50 (NCI/ADR-RES ovarian) of 208 nM and a GI50 (CCRF-CEM leukemia) of 337 nM. For the same compound, the TGI (CCRF-CEM leukemia) was over 100 µM, the GI50 (NCI-H522 lung) was 89.1 nM and the TGI (NCI-H522 lung) was 1.98 µM. The GI50 (HS 578T breast) was 0.264 µM, the TGI (HS 578T breast) was 50.1 µM and the GI50 (A549 NSCLC) was 404 nM. The TGI (A549 NSCLC) was over 100 µM, the GI50 (OVCAR-8 ovarian) was 592 nM and the TGI (OVCAR-8 ovarian) was over 100 µM.
For `CN(C(=O)CNC(=O)/C=C/c1cccc(Cl)c1)C1CCS(=O)(=O)CC1`, the GI50 (RXF 393 renal) was 6.47 µM, the TGI (RXF 393 renal) was 40.7 µM and the GI50 (SNB-19 CNS) was over 100000 nM. For the same compound, the TGI (SNB-19 CNS) was over 100 µM, the GI50 (NCI/ADR-RES ovarian) was over 100000 nM and the TGI (NCI/ADR-RES ovarian) was over 100 µM. The GI50 (CCRF-CEM leukemia) was over 100000 nM, the TGI (CCRF-CEM leukemia) was over 100 µM and the GI50 (NCI-H522 lung) was 1170 nM. It also gave a TGI (NCI-H522 lung) of over 100 µM, a GI50 (HS 578T breast) of 90.4 µM and a TGI (HS 578T breast) of over 100 µM. It also gave a GI50 (A549 NSCLC) of over 100000 nM, a TGI (A549 NSCLC) of over 100 µM and a GI50 (OVCAR-8 ovarian) of over 100000 nM. The TGI (OVCAR-8 ovarian) was over 100 µM.
